Experimental findings from patent US5177082A, “Huperzines and analogs” (priority 1990, dated 1993) are described below.

The target of one data set is true cholinesterase (Rattus norvegicus, UniProt P37136). As to the kind of experiment: biochemical. On the set-up: Red blood cell membranes of rats; from tissue; host or cells: rat red blood cell membranes. The method, then:
(§1) Red blood cell membranes of rats were used as the source for the true cholinesterase with a substrate concentration of 0.3 mM of S-acetylthiocholine iodide. The source for pseudocholinesterase was 0.1 ml of rat blood serum and the substrate was 0.4 mM S-butyrylthiocholine iodide. The Ellman colorimetric method was used to measure the enzyme activity. The percentage of enzyme activity remaining was plotted against negative logarithm (pI) of the drug concentration and the pI50 (the negative logarithm of the gram molecule concentration of the drug required to inhibit the enzyme activity 50%) was derived.

The target in the next data set is T1, pseudocholinesterase (Rattus norvegicus, UniProt Q9JKC1).
T1 construct: 0.1 ml of rat blood serum; from tissue; host or cells: rat blood serum
As to the kind of experiment: biochemical. The method, then: as §1

The test system of another data set is TA100. In words: Mutation test (Ames) TA100 + S9. The conditions noted are these: 1500 μg/container.
In another data set the test system is Mice. As to conditions: mouse, in vivo.
A short description of data set [1]: in vivo. The conditions noted are these: mouse, ip.
Data set [2] is described as follows: in vivo. The conditions noted are these: rat, ip.
Data set [3] deals with In Vitro Rat Nerve/Diaphragm Muscle Contraction. As to the kind of experiment: In vitro phrenic nerve/diaphragm preparations of rats, enhancement of muscle contraction. As to conditions: for EC50: read-out: Enhancement of Muscle Contraction Amplitude, 50% Concentration; for Strength of Effect: relative to Huperzine A = 1.00. The method, then: 1. In Vitro Phrenic Nerve/Diaphragm Preparations of Rats.
After the fast decapitation of a rat, the thoracic cavity was opened and the right diaphragm with attached phrenic nerve was removed. After placing it in a Tyrode's solution (37° C. constant temperature), gassed with 95% oxygen+5% CO2, electrical stimulation (1-10 V, 0.5 ms, 1 c/10 s) of the phrenic nerve was used to produce muscle contraction. A transducer was used to record the contraction amplitude on a panel recorder. […].

In data set [4] the test system is Sciatic Nerve/Tibialis Muscle Preparation. In words: Anesthetized rabbit sciatic nerve/tibialis muscle preparation. The format is in vivo. The conditions noted are these: rabbits; for minimal effective dose: Oryctolagus cuniculus, iv, read-out: Lowest Effective Dosage for Enhancing Muscle Contraction.
Description: (§3) Anesthesized Rat and Rabbit Sciatic Nerve/Tibialis Muscle Preparation
(§4) Anesthesia was produced in rats by ip injections of 30 mg/kg of pentobarbital and in rabbits by iv injections of 1 g/kg of urethane. Electric stimulation of the periphery of the sciatic nerve (5-10 V, 0.5 ms, 1 c/10 s) caused tibialis contraction which was recorded on smoked paper.
For data set [5] the test system is unchanged. As to the kind of experiment: Anesthetized rat sciatic nerve/tibialis muscle preparation. The format is in vivo. The conditions noted are these: for minimal effective dose: Rattus norvegicus, iv, read-out: Lowest Effective Dosage for Enhancing Muscle Contraction.
Description: as §3, §4
The test system of the next data set is Rats. The conditions noted are these: rat, in vivo.
The next data set deals with myasthenia gravis. In words: Double blind cross-over comparison of Huperzine A and neostigmine, 69 cases of myasthenia gravis. The format is in vivo, human. The source says: (§2) Patients affected with myasthenia gravis (MG) with typical clinical symptoms which improved after using neostigmine were the subjects for testing and verification. […] The injections were all given in the morning and on the morning prior to the injections anticholinesterase drugs were discontinued. Neither the patients nor the doctors knew which drug was being injected. Later, the symptoms, the duration of the improvements, if any, which were obtained by the drugs and the side effects were recorded.
(1) Comparison of the maintained times of the effects.

A further data set deals with patients. As to the kind of experiment: Clinical side effects in patients with myasthenia gravis. The format is in vivo, human. The method, then: as §2, with “verification. […] It was generally used for at least ten days and each dosage was 0.4-0.5 mg.” for “verification.”, “recorded. Based on these factors, the relative merits of the two drugs were established.” for “recorded.”

The subject of data set [6] is learning functions of rats. As to the kind of experiment: Y maze conditioned reflex test, learning process of rats. The conditions noted are these: 0.08 mg/kg, iv.
Excerpt: Each animal was required to go through 10 successive shock-free runs to be classified as learned.
Another data set has as its system memory functions of rats. In words: Memory function of preconditioned rats after 48 hours. The format is in vivo, rat. As to conditions: 0.15 mg/kg, after 48 hours. The method, then:
To evaluate the impact on the memory function, preconditioned animals going through 5 shock-free runs were used as learned animals. After 48 hours the drug-free (control) animals required 14.4±8.9 shocks to become learned.

The mark [7] stands for this setting: 0.4 mM S-butyrylthiocholine iodide, read-out: Inhibition of Cholinesterase (pI50), Blood serum (converted).
Setting [8] is: in vitro rat phrenic nerve/diaphragm, 37° C.
Where [9] appears, read: 0.3 mM S-acetylthiocholine iodide, read-out: Inhibition of Cholinesterase (pI50), Red Blood Cells (converted).

Read-outs that look alike come from different tables or passages of the source. Some results are limits rather than exact numbers.

Chain of true cholinesterase (P37136-2 with tags, fused parts or gaps limits assumed): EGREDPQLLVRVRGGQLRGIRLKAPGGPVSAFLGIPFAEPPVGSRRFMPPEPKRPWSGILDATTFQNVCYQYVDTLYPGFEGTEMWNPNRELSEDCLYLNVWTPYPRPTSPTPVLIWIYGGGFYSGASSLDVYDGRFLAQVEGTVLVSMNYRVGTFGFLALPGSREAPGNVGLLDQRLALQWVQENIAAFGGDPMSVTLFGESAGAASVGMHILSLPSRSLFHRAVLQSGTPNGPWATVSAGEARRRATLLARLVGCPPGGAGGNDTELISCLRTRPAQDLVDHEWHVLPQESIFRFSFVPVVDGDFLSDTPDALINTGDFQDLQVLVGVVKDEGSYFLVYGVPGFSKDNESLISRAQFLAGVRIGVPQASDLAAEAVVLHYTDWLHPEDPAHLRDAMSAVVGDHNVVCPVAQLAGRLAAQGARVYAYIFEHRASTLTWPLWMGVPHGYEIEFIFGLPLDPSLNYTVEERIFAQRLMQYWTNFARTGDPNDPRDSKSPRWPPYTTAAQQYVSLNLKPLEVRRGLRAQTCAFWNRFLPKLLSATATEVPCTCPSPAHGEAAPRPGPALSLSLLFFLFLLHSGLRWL
T1 sequence (Q9JKC1 24-597): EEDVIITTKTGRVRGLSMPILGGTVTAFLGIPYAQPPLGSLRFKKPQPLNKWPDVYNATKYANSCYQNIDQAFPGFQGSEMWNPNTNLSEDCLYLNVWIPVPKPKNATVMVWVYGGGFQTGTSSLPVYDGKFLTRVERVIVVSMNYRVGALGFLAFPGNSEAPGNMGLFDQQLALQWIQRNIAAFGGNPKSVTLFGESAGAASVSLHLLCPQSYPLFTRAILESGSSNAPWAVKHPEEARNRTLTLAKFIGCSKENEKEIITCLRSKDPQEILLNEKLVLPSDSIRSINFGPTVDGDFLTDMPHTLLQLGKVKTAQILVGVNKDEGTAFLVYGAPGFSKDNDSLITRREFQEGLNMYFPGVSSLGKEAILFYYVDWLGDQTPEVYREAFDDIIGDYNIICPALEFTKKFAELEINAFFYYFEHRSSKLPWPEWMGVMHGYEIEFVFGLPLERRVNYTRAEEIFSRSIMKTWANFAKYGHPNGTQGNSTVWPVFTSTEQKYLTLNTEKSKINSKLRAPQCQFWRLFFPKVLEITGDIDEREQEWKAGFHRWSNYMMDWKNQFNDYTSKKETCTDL

For the compound `CCC1[C@H]2C=C(C)C[C@]1(N)c1ccc(=O)[nH]c1C2` (stereo partly drawn) [11,12-dihydro-huperzine A, (5R, 9R)-5-amino-11-ethyl-5,6,9,10-tetrahydro-7-methyl-5,9-methanocycloocta[b]pyridin-2(1H)-one], the values for the IC50 against true cholinesterase and at pseudocholinesterase (setting [7]) were 0.631 µM and 12.6 µM, respectively.

For the compound `O=P1(N(CCCl)CCCl)NCCCO1` (stereo not shown) [Cyclophosphamide], in the data set with TA100, the “reverse mutation colonies, TA100 + S9” value was found to be 566 ± 10.

Turning to `COc1ccc2c3c1O[C@H]1C[C@@H](O)C=C[C@@]31CCN(C)C2` [Galanthamine, reference compound], the “Toxic Strength” value is 0.13 in the data set on Mice and 1.22 with Rats. In addition, the LD50 – broadly, the dose at which mortality reaches 50% – in the data set “in vivo [1]” amounted to 13.4 mg/kg; in “in vivo [2]” it was 22.9 mg/kg. The EC50 in data set [3] (setting [8]) is 4.2 µM. The “Strength of Effect” value in data set [3] came to 0.10; in data set [4] (galanthamine = 1.0), 1.0; in data set [5] (rat, in vivo), 1.0. Besides, the minimal effective dose in data set [4] and in [5] was 0.5 mg/kg throughout. Moreover, the “Inhibition of Cholinesterase (pI50), Blood serum” value on pseudocholinesterase turned out to be 4.9.

Consider `CC1=C[C@H]2Cc3[nH]c(=O)ccc3[C@]3(C1)NCCC[C@H]23` [Huperzine B, (4aR, 5R, 10bR)-1,2,3,4,4a,5,6,10b-octahydro-12-methyl-5,10b-propeno-1,7-phenanthrolin-8(7H)-one], for which the figures for the IC50 against true cholinesterase and on pseudocholinesterase were 0.501 µM and 200 µM, respectively. Also, the EC50 in [3] (Rattus norvegicus) came to 4.8 µM. In addition, the “Strength of Effect” value in data set [3] is given as 0.09.

As for `C/C=C1\[C@H]2C=C(C)C[C@]1(NC(C)=O)c1ccc(=O)[nH]c1C2` [N-acetyl huperzine A, (5R, 9R, 11E)-5-(acetylamino)-11-ethylidene-5,6,9,10-tetrahydro-7-methyl-5,9-methanocycloocta[b]pyridin-2(1H)-one], the IC50 on true cholinesterase (setting [9]) was over 3160 µM. The “Inhibition of Cholinesterase, Blood serum (concentration found ineffective)” value (“Inhibition … (concentration found ineffective)” for short) on pseudocholinesterase is on record as 1.1 × 10^-2 M ineffective.

`C/C=C1\[C@H]2C=C(C)C[C@]1(N(C)C)c1ccc(=O)[nH]c1C2` [N-dimethyl huperzine A, (5R, 9R, 11E)-11-ethylidene-5,6,9,10-tetrahydro-7-methyl-5-(dimethylamino)-5,9-methanocycloocta[b]pyridin-2(1H)-one]: the IC50 against true cholinesterase was 158 µM. On pseudocholinesterase (0.4 mM S-butyrylthiocholine iodide), the “Inhibition … (concentration found ineffective)” value is 1.2 × 10^-2 M ineffective.

As to `CC1=C[C@H]2Cc3[nH]c(=O)ccc3[C@@]3(C1)[C@@H]2CCCN3C` [N-methyl huperzine B, (4aR, 5R, 10bR)-1,2,3,4,4a,5,6,10b-octahydro-1,12-dimethyl-5,10b-propeno-1,7-phenanthrolin-8(7H)-one], at pseudocholinesterase (setting [7]), the IC50 is 316 µM.

`C/C=C1\[C@H]2C=C(C)C[C@]1(N(C)C)c1ccc(=O)n(C)c1C2` [N-trimethyl-huperzine A, (5R, 9R, 11E)-11-ethylidene-5,6,9,10-tetrahydro-1,7-dimethyl-5-(dimethylamino)-5,9-methanocycloocta[b]pyridin-2(1H)-one]: on true cholinesterase (setting [9]), the IC50 is 316 µM. Moreover, the “Inhibition … (concentration found ineffective)” value on pseudocholinesterase is 1.1 × 10^-2 M ineffective.

As for `CN(C)C(=O)Oc1cccc([N+](C)(C)C)c1` [Neostigmine, reference compound], in the data set on myasthenia gravis, the “action time of neostigmine longer than Huperzine A, %” value is on record as 8.69% and the “action time of neostigmine longer than Huperzine A, cases” value turned out to be 6 cases. Also, in the data set with patients (control group), the “Abdominal pains, %” value was 7.4%; the “Abdominal pains, number of times” value worked out at 26; the “Blurred vision, %” value is given as 9.7%; the “Blurred vision, number of times” value came out at 24. Further, in the data set with patients (control group), the “Dizziness, %” value was 19.5%; the “Dizziness, number of times” value is given as 68; the “Drooling, %” value is given as 1.2%; the “Drooling, number of times” value was 11. Moreover, in the data set on patients (control group), the “Increase in the number of bowel movements, %” value worked out at 2.0%; the “Increase in the number of bowel movements, number of times” value came to 7; the “Muscle bundle quivering, %” value stood at 8.3%; the “Muscle bundle quivering, number of times” value turned out to be 29. Moreover, in the data set on patients (control group), the “Myosis, %” value stood at 3.4%; the “Myosis, number of times” value was found to be 12; the “Nausea, %” value was found to be 4.3%; the “Nausea, number of times” value was 15. Further, in the data set on patients (control group), the “Perspiring, %” value stood at 12.1%; the “Perspiring, number of times” value was determined as 43; the “Tinnitus, %” value is recorded as 4.0%; the “Tinnitus, number of times” value was determined as 14. In the data set on patients (control group), the “Vomiting, %” value was 1.2% and the “Vomiting, number of times” value was determined as 6. In addition, in the data set on patients (control patients, 69 cases), the “cases with side effects” value is 34 cases. For the same compound, the “cases with side effects, %” value with patients (control patients, 69 cases, X^2 =3.58, P>0.05) turned out to be 49.27%. The “perspiring and blurred vision vs Huperzine A” value in the data set on patients (perspiring X^2 =5.5, P<0.01, blurred vision X^2 =12.96, P<0.001) is “more noticeably than Hyperzine A caused perspiring and blurred vision”. In addition, the IC50 on true cholinesterase (setting [9]) is 0.224 µM. For the same compound, in [3] (Rattus norvegicus), the EC50 came to 0.272 µM. For the same compound, the “Strength of Effect” value in [3] is 1.61. Besides, the IC50 on pseudocholinesterase (setting [7]) is 3.55 µM.

As for `CNC(=O)Oc1ccc2c(c1)[C@]1(C)CCN(C)[C@@H]1N2C` [Physostigmine, reference compound], the “shocks accepted before achieving the learned state (learning)” value in data set [6] turned out to be 7.9±3.5 shocks. The “Toxic Strength” value with Mice was 2.25; in the data set with Rats it was 2.08. Also, the “shocks required to achieve the learned state (memory)” value with memory functions of rats was 6.4±3.7 shocks. For the same compound, the 50% lethal dose (LD50) was 0.8 mg/kg in “in vivo [1]” and 2.4 mg/kg in the data set “in vivo [2]”. Moreover, the EC50 in data set [3] (setting [8]) amounted to 0.245 µM. In addition, the “Strength of Effect” value in data set [3] turned out to be 1.79; in data set [4] (physostigmine = 1.0) it was 1.0; in [5] (rats, physostigmine = 1.0), 1.0. Also, the minimal effective dose worked out at 0.12 mg/kg in data set [4] and 0.05 mg/kg in [5] (rats). Besides, the “effect on electrically stimulated muscle contraction” value in data set [4] (iv (Huperzine A 30 μg/kg)) was “enhanced the rabbit's tibialis muscle contraction amplitude but to a lesser degree than that observed for the rats”. At pseudocholinesterase, this compound showed an IC50 of 1.12 µM.

For `CCC1[C@H]2Cc3[nH]c(=O)ccc3[C@@]1(N)CC(C)C2` (stereo partly drawn) [tetrahydro-huperzine A, (5R, 9R)-5-amino-11-ethyl-5,6,7,8,9,10-hexahydro-7-methyl-5,9-methanocycloocta[b]pyridin-2(1H)-one], the IC50 at true cholinesterase (setting [9]) was 2.51 µM; on pseudocholinesterase (setting [7]), 50.1 µM.

On to Tubocurarine [reference compound], for which, in data set [5] (tubocurarine 0.3 mg/kg iv, species not separated (rats/rabbits)), the “block of electrically induced muscle contraction” value is recorded as “completely blocked the electrically induced muscle contraction”.
